From PubChem BioAssay (NCI)
Values joined by “and” are separate entries in the source; they are usually repeats but may differ in a detail not shown here. Equal values may be shown once.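 48-hour exposure; five concentrations; linearly interpolated endpoints. At the GI50, growth is halved. TGI denotes the concentration required for complete inhibition of growth.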

Tests used:
Experiment in all cases: inhibition of tumour cell growth, NCI panel, 48 h
SK-MEL-28 melanoma = tested on: SK-MEL-28 melanoma
KM12 colon = tested on: KM12 colon
EKVX NSCLC = tested on: EKVX NSCLC
SF-295 CNS = tested on: SF-295 CNS
CCRF-CEM leukemia = tested on: CCRF-CEM leukemia
A498 renal = tested on: A498 renal
HS 578T breast = tested on: HS 578T breast
UO-31 renal = tested on: UO-31 renal
HL-60(TB) leukemia = tested on: HL-60(TB) leukemia
NCI-H226 lung = tested on: NCI-H226 lung

Row | Compound | GI50 (SK-MEL-28 melanoma) | TGI (SK-MEL-28 melanoma) | GI50 (KM12 colon) | TGI (KM12 colon) | GI50 (EKVX NSCLC) | TGI (EKVX NSCLC) | GI50 (SF-295 CNS) | TGI (SF-295 CNS) | GI50 (CCRF-CEM leukemia) | TGI (CCRF-CEM leukemia) | GI50 (A498 renal) | TGI (A498 renal) | GI50 (HS 578T breast) | TGI (HS 578T breast) | GI50 (UO-31 renal) | TGI (UO-31 renal) | GI50 (HL-60(TB) leukemia) | TGI (HL-60(TB) leukemia) | GI50 (NCI-H226 lung) | TGI (NCI-H226 lung)
1 | CCN(CC)CCCC(C)Nc1c(-c2ccccc2)cnc2cc(Cl)ccc12 (stereo unspecified) | 1.82 µM | 3.55 µM | 4.19 µM | 16 µM | 7.58 µM | 40.7 µM | 2.78 µM | 9 µM | 14.4 µM | > 100 µM | 2.71 µM | 13.8 µM | 6.82 µM | 24.7 µM | 1.12 µM | 8.83 µM | 5.29 µM | 23.8 µM | 15.7 µM | 31.6 µM
2 | O=C(Nc1cnc(C(F)(F)F)cn1)c1cc(Cl)ccc1O | 0.257 µM | 2.2 µM | 0.343 µM | 16.2 µM | 0.228 µM |  | 0.255 µM | 0.675 µM | 0.406 µM | > 100 µM | 0.235 µM | 0.639 µM | 0.335 µM | 26.4 µM | 0.196 µM | 1.16 µM | 0.279 µM | 0.654 µM | 0.322 µM | 23.9 µM
3 | C[C@@H]1COCCN1c1cc(-c2ccnn2C)c2ccnc(-c3ccn[nH]3)c2n1 | 0.361 µM and 0.777 µM | 4.2 µM and 16.8 µM | 0.176 µM and 0.171 µM | > 100 µM | 0.205 µM and 0.349 µM | 8.11 µM and > 28.6 µM | 0.057 µM and 0.11 µM | 0.648 µM and 1.15 µM | 0.0175 µM and 0.03 µM | > 23.7 µM | 0.0212 µM and 0.0373 µM | 0.0838 µM and 0.226 µM | 0.0994 µM and 0.291 µM | 0.643 µM and 2.06 µM | 0.0741 µM and 0.152 µM | 0.792 µM and 1.92 µM | 0.106 µM and 0.194 µM | 0.66 µM and 3.16 µM | 0.241 µM and 0.474 µM | 
4 | Nc1ncccc1-c1nc2ccc(-c3ccccc3)nc2n1-c1ccc(C2(N)CCC2)cc1 | 1.2 µM | 2.66 µM | 1.78 µM | 6.93 µM | 1.92 µM | 16.2 µM | 0.256 µM | 2.3 µM | 0.437 µM | 9.86 µM | 0.0791 µM | 0.654 µM | 0.253 µM | 2.31 µM | 0.278 µM | 2.03 µM | 1.83 µM | 3.92 µM | 5.02 µM | 23.7 µM
5 | CCOC(=O)C1=C(C)N2C(=NC3=C(CCC/C3=C\c3ccc(Cl)cc3)C2c2ccc(Cl)cc2)S1 (stereo unspecified) | 3.07 µM | 11.4 µM | 1.93 µM | 3.68 µM | 3.37 µM | 46.8 µM | 2.85 µM | 8.76 µM | 2.59 µM | 7.87 µM | 1.37 µM | 3.09 µM | 5.33 µM | > 100 µM | 1.7 µM | 3.85 µM | 3.09 µM | 9.24 µM | 3.04 µM | 8.8 µM
6 | C=CCCCOC1[C@H](OCc2ccccc2)C(OCc2ccccc2)C(OC)O[C@@H]1CNC(=O)c1cccc(I)c1 (stereo partly specified) | 8.51 µM | > 100 µM | 6.49 µM | > 100 µM | 3.2 µM | > 100 µM | 4.14 µM | > 100 µM | 3.55 µM | > 100 µM | 7.2 µM | 72.8 µM | 9.32 µM | > 100 µM | 9.51 µM | > 100 µM | 2.83 µM | 21.3 µM | 21.9 µM | > 100 µM
7 | N#CC(C#N)=C(N)/C(C#N)=C/c1ccc2[nH]ccc2c1 |  | > 100 µM |  | > 100 µM |  | > 100 µM |  | > 100 µM |  | > 100 µM |  | > 100 µM |  | > 100 µM |  | > 100 µM |  | > 100 µM |  | > 100 µM
8 | C=C1CC[C@@H]2[C@](C)(COC(C)=O)[C@H](OC(C)=O)CC[C@@]2(C)[C@@H]1CC(Nc1ccc(S(=O)(=O)Nc2nccs2)cc1)C1=CCOC1=O (stereo partly specified) | 3.95 µM | 15.1 µM | 7.58 µM | 21.7 µM | 14 µM | 27 µM | 13.8 µM | 27.2 µM | 2.28 µM | 6.76 µM | 18.2 µM | 32.6 µM | 10.8 µM | 60.4 µM | 4.07 µM | 16.1 µM | 3.01 µM | 13.3 µM | 2.36 µM | 5.37 µM
9 | NS(=O)(=O)c1cccc(-c2ccc3c(NC(=O)C4CC4)n[nH]c3c2)c1 | 15.7 µM | > 25 µM | 11.3 µM | > 25 µM | > 25 µM | > 25 µM | > 25 µM | > 25 µM | 8.51 µM | > 25 µM | > 19.8 µM | > 25 µM | 9.6 µM | > 25 µM | > 25 µM | > 25 µM | 8.31 µM | > 22.5 µM | > 15.1 µM | > 25 µM
10 | COc1ccc(-c2ccc(/C=N/n3c(COc4ccccc4Cl)n[nH]c3=S)o2)c([N+](=O)[O-])c1 | 55 µM | > 100 µM | 20.9 µM | 49.5 µM |  |  | 22.6 µM | 56.5 µM | 23.1 µM | > 100 µM | 14.4 µM | 40.6 µM | 32.5 µM | 98.7 µM | 31.7 µM | > 100 µM | 22.4 µM | 56.4 µM | 20.1 µM | 50.9 µM
11 | CC(=O)O.CC(=O)O.CC(=O)O.CC(=O)O.[Rh].[Rh] | 32.3 µM | 93.8 µM | 34.8 µM | > 100 µM | 20.7 µM | 44.1 µM |  |  | 5.1 µM | 20.3 µM | 18.8 µM | 37.2 µM | 60.6 µM | > 100 µM | 20.6 µM | 59 µM | 23.7 µM | 50.9 µM | 22 µM | 99.2 µM
12 | COc1cc(C2CC(=O)Nc3c2cc(Br)c2ccccc32)cc(Br)c1OC (stereo unspecified) | 2.98 µM | > 100 µM |  |  |  |  | 1.47 µM | 5.4 µM | 2.01 µM | 21.5 µM | 1 µM | 3.29 µM | 1.78 µM | > 54.2 µM |  |  | 1.06 µM | 3.98 µM | 2.34 µM | 5.57 µM
13 | Cc1oc2c(c1C(=O)N1CC[C@@H](N)C1)C(=O)c1c(c(O)c3ccccc3c1O)C2=O | 7.47 µM | 20.9 µM | 2.98 µM | 14.4 µM |  |  | 0.272 µM | 1.79 µM | 1.01 µM | 4.33 µM | 3.38 µM | 18.9 µM | 5.23 µM | 22.6 µM | 0.421 µM | 2.44 µM | 1.17 µM | 4.31 µM | 1.52 µM | 22.6 µM
